Experimental data: patent publication US12162857B2, “Antiviral compounds” (priority 2022, dated 2024)

system: HMPV A2 TN/94-49; assay: HMPV antiviral assay: LLC-MK2 cells, ATP-Lite readout; type: cell-based; settings: LLC-MK2, 168 h, MOI 0.005, 7 days incubation
Procedure: In vitro HMPV antiviral activity was evaluated using the clinical isolate A2 strain TN 94-49 and LLC-MK2 cells (ATCC #CCL-7), an immortalized kidney epithelial cell line from Macaca mulatta. Compounds were resuspended in dimethyl sulfoxide (DMSO) at 10 mM, serially diluted and added to a 384-well source plate. Subsequently, the compounds were diluted and transferred onto 384-well assay plates using the Echo-650 automated liquid handling system (Beckman Coulter, Indiana). The test compounds were assessed in duplicate at a top concentration of 2 μM followed by 2.5-fold serial dilutions to give a total of 10 concentration points. DMSO control wells were also included on the assay plates and were either infected or not, acting as positive and negative controls. A2 TN 94-49 virus infections were performed in-suspension with LLC-MK2 cells. The cells were washed twice with PBS and removed from the cell-culture flask with 0.25% trypsin-EDTA (Thermo Fisher Scientific, MA). The trypsin-EDTA was inactivated by resuspending in 2% fetal bovine serum (FBS) and OptiMEM (ThermoFisher Scientific, MA) containing 1% penicillin-streptomycin. Cells were pelleted by centrifuging for 5 minutes at 800 rpm, the supernatant was removed, and cells were re-suspended and washed in PBS plus 100 μg/mL CaCl2). This step was performed twice. Cells were then re-suspended in serum-free (SF)-OptiMEM containing 4 μg/mL TPCK-Trypsin (Sigma Aldrich, MO), 1% penicillin-streptomycin (ThermoFisher Scientific, MA) and 100 μg/mL CaCl2). Cells were counted and seeded at a density of 5,000 cells/well, 12.5 μL/well. Virus infections were done at a multiplicity of infection (MOI) of 0.005 with 12.5 μL added per well. Virus infections were performed in infection media which contained SF-OptiMEM, 100 μg/mL CaCl2) and 1% penicillin-streptomycin. HMPV viral stocks are suspended in infection media+5% glycerol, thus an equal volume of infection media+5% glycerol was added to uninfected wells to equalize the final % glycerol across all wells of the assay plate. The final concentration of TPCK-trypsin was 2 μg/mL. The assay plates were incubated at 37° C., 5% CO2 for 7 days. After 7 days incubation, 12.5 μL of ATP-Lite (PerkinElmer, MA) was added to each well and the raw luminescence values were determined using the Envision 2104 (Perkin Elmer, MA). The average of the raw luminescence values for the cells and virus only positive control wells was subtracted from all conditions tested and the percent cell health was determined by dividing these values by the average of the cells only negative control wells. EC50 values were then calculated by non-linear regression using a four-parameter curve logistic equation. The curve fit model employed was XLFit Dose Response One Site Model 200: y=(A+(B/(1+((x/C)^D)))), where A is the minimum y value, B is the maximum y value, C is the log EC50 value, and D is the slope factor. […] EC50 ranges are as follows: A<1 μM; B>1 μM.

EC50 [µM] | SMILES
> 1 | COc1cc(C(=O)NC[C@](O)(c2ccc(F)c(-c3cc(Cl)c(F)cc3F)n2)C2CC2)cc2cn(C3(F)CC3)nc12 [Example 173]
> 1 | COc1cc(C(=O)NC[C@@](O)(c2ccccc2)c2cc(C(=O)Nc3ncco3)c(F)c(-c3cc(Cl)c(F)cc3F)n2)cc2cn(C3CC3)nc12 [Example 191]
< 1 | CC(C)(C(N)=O)c1cc([C@@](O)(CNC(=O)c2cc(Cl)c3nn(C4CC4)cc3c2)c2ccccc2)nc(-c2cc(Cl)c(F)cc2F)c1F [Example 162]
> 1 | COc1cc(C(=O)NC[C@](O)(c2cc(C3(O)COC3)c(F)c(-c3cc(Cl)c(F)cc3F)n2)C2CC2)cc2cn(C3(F)CC3)nc12 [Example 168]
> 1 | COc1c(C(C)(C)O)cc([C@@](O)(CNC(=O)c2cc(OC)c3nn(C4CC4)cc3c2)C2CC2)nc1-c1cc(F)c(F)cc1F (single isomer, unassigned) [Example 165]
> 1 | COc1cc(C(=O)NC[C@](O)(c2cc(C3(O)COC3)c(F)c(-c3cc(Cl)c(F)cc3F)n2)C2CC2)cc2cn(C3CC3)nc12 [Example 167]
> 1 | COc1cc(C(=O)NC[C@@](O)(c2ccccc2)c2cc(N3C(=O)CC[C@H]3C(N)=O)cc(-c3cc(Cl)c(F)cc3F)n2)cc2cn(C3CC3)nc12 [Example 196]
> 1 | COc1cc(C(=O)NC[C@](O)(c2cc(C3(O)COC3)c(F)c(-c3cc(Cl)c(F)cc3F)n2)C2CC2)cc2cn(C(F)F)nc12 [Example 169]
> 1 | COc1cc(C(=O)NC[C@@](O)(c2ccccc2)c2cc(C(=O)NC3CC3)c(F)c(-c3cc(Cl)c(F)cc3F)n2)cc2cn(C3CC3)nc12 [Example 194]
> 1 | COc1cc(C(=O)NC[C@@](O)(c2ccccc2)c2cc(C(=O)Nc3ncc[nH]3)c(F)c(-c3cc(Cl)c(F)cc3F)n2)cc2cn(C3CC3)nc12 [Example 190]
< 1 | [2H]C([2H])([2H])C(O)(c1cc([C@@](O)(CNC(=O)c2cc(OC)n3nc(C4CC4)cc3c2)C2CC2)nc(-c2cc(Cl)c(F)cc2F)c1F)C([2H])([2H])[2H] [Example 187]
> 1 | COc1cc(C(=O)NC[C@@](O)(c2ccccc2)c2cc(C(C)(C)C(N)=O)c(F)c(-c3cc(Cl)c(F)cc3F)n2)cc2sc(C)nc12 [Example 163]
> 1 | COc1cc(C(=O)NC[C@@](O)(c2ccccc2)c2cc(C(=O)NCC(C)(C)O)c(F)c(-c3cc(Cl)c(F)cc3F)n2)cc2cn(C3CC3)nc12 [Example 193]
> 1 | COc1cc(C(=O)NC[C@](O)(c2ccc(F)c(-c3cc(F)c(F)cc3F)n2)C2CC2)cc2cn(C3CC3)nc12 [Example 172]
> 1 | COc1cc(C(=O)NC[C@](O)(c2ccc(F)c(-c3cc(Cl)c(F)cc3F)n2)C2CC2)cc2cc(C)cnc12 [Example 175]

Second part, the molecule before the results:

SMILES | EC50 [µM]
COc1cc(C(=O)NC[C@@](O)(c2ccccc2)c2cc(C(C)(C)O)c(F)c(-c3cccc(Cl)c3Cl)n2)cc2sc(C)nc12 [Example 78] | < 1
COc1cc(C(=O)NC[C@@](O)(c2cccc(F)c2)c2cc(C(C)(C)O)c(F)c(-c3cccc(Cl)c3Cl)n2)cc2cc(C3CC3)nn12 [Example 101] | < 1
COc1cc(C(=O)NC[C@@](O)(c2ccccc2)c2cc(C(C)(C)O)cc(-c3cccc(Cl)c3Cl)n2)cc2cn(C(F)F)nc12 [Example 150] | < 1
CC(C)(O)c1cc([C@@](O)(CNC(=O)c2cc(Cl)c3nn(C4CC4)cc3c2)c2ccccc2)nc(-c2cccc(Cl)c2Cl)c1F [Example 82] | < 1
COc1cc(C(=O)NC[C@@](O)(c2ccccc2)c2cc(C(C)(C)O)c(Cl)c(-c3cccc(Cl)c3Cl)n2)cc2sc(C)nc12 [Example 139] | < 1
COc1cc(C(=O)NC[C@@](O)(c2ccccc2)c2cc(C(C)(C)O)c(F)c(-c3ccc(F)c(Cl)c3Cl)n2)cc2cc(C3CC3)nn12 [Example 69] | < 1
COc1cc(C(=O)NC[C@](O)(c2cc(C(C)(C)O)c(F)c(-c3ccc(F)c(Cl)c3F)n2)C2CC2)cc2cn(C3CC3)nc12 [Example 119] | < 1
COc1cc(C(=O)NC[C@@](O)(c2ccccc2)c2cc(C(C)(C)O)c(F)c(-c3ccc4c(c3Cl)OC(F)(F)O4)n2)cc2sc(C)nc12 [Example 73] | < 1
COc1cc(C(=O)NC[C@](O)(c2cc(C(C)(C)O)c(F)c(-c3cc(Cl)c(F)cc3F)n2)c2cccs2)cc2cn(C(F)F)nc12 [Example 114] | < 1
COc1cc(C(=O)NC[C@@](O)(c2ccccc2)c2cc(C(C)(C)O)c(F)c(-c3cc(Cl)c(F)cc3F)n2)cc2cn(C3CC3)nc12 [Example 60] | < 1
COc1cc(C(=O)NC[C@@](O)(c2cccc(F)c2)c2cc(C(C)(C)O)c(F)c(-c3cc(F)c(F)cc3F)n2)cc2cn(C3CC3)nc12 [Example 96] | < 1
COc1cc(C(=O)NC[C@@](O)(c2ccccc2)c2cc(C(C)(C)O)c(F)c(-c3ccc(F)c(Cl)c3F)n2)cc2cn(C3(F)CC3)nc12 [Example 124] | < 1
CC(C)(O)c1cc([C@@](O)(CNC(=O)c2cc(Cl)c3nn(C4CC4)cc3c2)c2ccccc2)nc(-c2ccc3c(c2Cl)OC(F)(F)O3)c1F [Example 75] | > 1
COc1cc(C(=O)NC[C@@](O)(c2ccccc2)c2cc(C(C)(C)O)c(F)c(-c3ccc(F)c(Cl)c3Cl)n2)cc2cn(C(F)F)nc12 [Example 70] | < 1
COc1cc(C(=O)NC[C@@](O)(c2cccc(F)c2)c2cc(C(C)(C)O)c(F)c(-c3ccc4c(c3Cl)OC(F)(F)O4)n2)cc2cn(C(F)F)nc12 [Example 111] | < 1
CC(C)(O)c1cc([C@@](O)(CNC(=O)c2cc(OC3CC3)c3nn(C4CC4)cc3c2)C2CC2)nc(-c2cc(Cl)c(F)cc2F)c1F [Example 55] | < 1

SMILES | EC50 [µM]
COc1cc(C(=O)NC[C@@](O)(c2cccc(F)c2)c2cc(C(C)(C)O)c(F)c(-c3ccc(F)c(Cl)c3Cl)n2)cc2cn(C3CC3)nc12 [Example 103] | < 1
COc1cc(C(=O)NC[C@@](O)(c2ccccc2)c2cc(C(C)(C)O)cc(-c3ccc(F)c(Cl)c3Cl)n2)cc2sc(C)nc12 [Example 151] | < 1
COc1cc(C(=O)NC[C@@](O)(c2cccc(F)c2)c2cc(C(C)(C)O)c(F)c(-c3cc(Cl)c(F)cc3F)n2)cc2cc(C3CC3)nn12 [Example 93] | < 1
COc1cc(C(=O)NC[C@@](O)(c2ccccc2)c2cc(C(C)(C)O)cc(-c3cccc(Cl)c3Cl)n2)cc2sc(C)nc12 [Example 147] | < 1
COc1cc(C(=O)NC[C@@](O)(c2ccccc2)c2cc(C(C)(C)O)c(Cl)c(-c3cccc(Cl)c3Cl)n2)cc2cn(C3CC3)nc12 [Example 140] | > 1
COc1cc(C(=O)NC[C@@](O)(c2cccc(F)c2)c2cc(C(C)(C)O)c(F)c(-c3cccc(Cl)c3Cl)n2)cc2cn(C3CC3)nc12 [Example 98] | < 1
CCC(O)(CC)c1cc([C@@](O)(CNC(=O)c2cc(OC)c3nn(C4CC4)cc3c2)c2ccccc2)nc(-c2cc(Cl)c(F)cc2F)c1F [Example 116] | < 1
COc1cc(C(=O)NC[C@@](O)(c2ccccc2)c2cc(C(C)(C)O)c(Cl)c(-c3cc(Cl)c(F)cc3F)n2)cc2cn(C(F)F)nc12 [Example 134] | > 1
COc1cc(C(=O)NC[C@@](O)(c2ccccc2)c2cc(C(C)(C)O)c(F)c(-c3ccc4c(c3Cl)OC(F)(F)O4)n2)cc2cn(C(F)F)nc12 [Example 76] | < 1
CC(C)(O)c1cc([C@@](O)(CNC(=O)c2cc(Cl)c3nn(C4CC4)cc3c2)c2ccccc2)nc(-c2ccc3c(c2Cl)OC(F)(F)O3)c1Cl [Example 137] | > 1
COc1cc(C(=O)NC[C@@](O)(c2ccccc2)c2cc(C(C)(C)O)c(Cl)c(-c3cc(Cl)c(F)cc3F)n2)cc2sc(C)nc12 [Example 131] | > 1
COc1cc(C(=O)NC[C@@](O)(c2ccccc2)c2cc(C(C)(C)O)cc(-c3ccc(F)c(Cl)c3Cl)n2)cc2cn(C3CC3)nc12 [Example 152] | < 1
COc1cc(C(=O)NC[C@@](O)(c2ccccc2)c2cc(C(C)(C)O)c(Cl)c(-c3cccc(Cl)c3Cl)n2)cc2cn(C(F)F)nc12 [Example 142] | > 1
CC(C)(O)c1cc([C@@](O)(CNC(=O)c2cc(Cl)c3nn(C4CC4)cc3c2)c2ccccc2)nc(-c2ccc3c(c2)OC(F)(F)O3)c1F [Example 77] | > 1
COc1cc(C(=O)NC[C@@](O)(c2ccccc2)c2cc(C(C)(C)O)c(F)c(-c3ccc4c(c3Cl)OC(F)(F)O4)n2)cc2cc(C3CC3)nn12 [Example 72] | < 1
